Laboratory results reported in publication PMC4032265 (PLoS ONE, 2014).
Where “and” joins values, the source holds several entries; their conditions need not be identical. Equal values may be shown once. Read-outs that look alike come from different tables or passages of the source.

How the values were obtained:
[1] = biological target: T1, 5HT2C serotonergic receptor (Homo sapiens, UniProt P28335); assay: PDSP radioligand binding, 5HT2C; settings: for Ki: full concentration-response curves, n = 3-6 unless noted; for inhibition at 10 µM: read-out: % inhibition at 10 µM
T1 sequence (P28335 33-458): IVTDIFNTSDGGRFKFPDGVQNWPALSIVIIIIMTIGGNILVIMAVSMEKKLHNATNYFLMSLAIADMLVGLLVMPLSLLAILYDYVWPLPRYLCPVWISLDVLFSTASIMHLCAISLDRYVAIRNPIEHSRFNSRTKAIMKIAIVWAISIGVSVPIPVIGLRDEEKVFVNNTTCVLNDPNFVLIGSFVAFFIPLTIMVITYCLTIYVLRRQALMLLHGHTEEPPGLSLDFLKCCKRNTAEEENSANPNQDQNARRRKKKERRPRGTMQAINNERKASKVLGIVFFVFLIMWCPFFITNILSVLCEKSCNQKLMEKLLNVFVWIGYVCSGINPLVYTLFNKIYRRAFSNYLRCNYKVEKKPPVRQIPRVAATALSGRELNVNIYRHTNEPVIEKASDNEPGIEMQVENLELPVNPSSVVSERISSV

[2] = biological target: T2, α2B adrenergic receptor (Homo sapiens, UniProt P18089); assay: PDSP radioligand binding, α2B; settings: for Ki: full concentration-response curves, n = 3-6 unless noted; for inhibition at 10 µM: read-out: % inhibition at 10 µM
T2 sequence (P18089 1-450): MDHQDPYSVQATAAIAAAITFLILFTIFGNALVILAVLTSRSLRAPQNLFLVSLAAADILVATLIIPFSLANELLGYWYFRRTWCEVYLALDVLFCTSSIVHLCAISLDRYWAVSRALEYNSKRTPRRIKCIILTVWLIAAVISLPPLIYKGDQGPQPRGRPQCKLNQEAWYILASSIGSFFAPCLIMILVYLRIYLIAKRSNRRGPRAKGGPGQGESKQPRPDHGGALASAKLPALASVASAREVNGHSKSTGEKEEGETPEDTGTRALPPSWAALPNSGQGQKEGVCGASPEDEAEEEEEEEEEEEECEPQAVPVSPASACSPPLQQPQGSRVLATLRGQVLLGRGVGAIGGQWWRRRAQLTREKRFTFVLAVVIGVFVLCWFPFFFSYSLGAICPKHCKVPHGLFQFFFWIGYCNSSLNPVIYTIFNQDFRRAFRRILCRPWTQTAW

[3] = biological target: 5HT1B serotonergic receptor (Homo sapiens, UniProt P28222); assay: PDSP radioligand binding, 5HT1B; settings: read-out: % inhibition at 10 µM
Sequence of 5HT1B serotonergic receptor (P28222 whole entry): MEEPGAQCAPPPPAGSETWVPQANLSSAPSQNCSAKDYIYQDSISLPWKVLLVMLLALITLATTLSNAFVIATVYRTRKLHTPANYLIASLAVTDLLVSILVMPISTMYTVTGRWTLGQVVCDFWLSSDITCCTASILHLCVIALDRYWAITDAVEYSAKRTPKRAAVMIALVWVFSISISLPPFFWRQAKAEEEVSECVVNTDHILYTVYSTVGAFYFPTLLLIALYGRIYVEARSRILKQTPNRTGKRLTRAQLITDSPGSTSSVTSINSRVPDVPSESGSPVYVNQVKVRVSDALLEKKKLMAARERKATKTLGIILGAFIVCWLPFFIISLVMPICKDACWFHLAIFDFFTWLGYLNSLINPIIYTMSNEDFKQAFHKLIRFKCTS

[4] = biological target: T3, α2A adrenergic receptor (Homo sapiens, UniProt P08913); assay: PDSP radioligand binding, α2A; settings: for Ki: full concentration-response curves, n = 3-6 unless noted; for inhibition at 10 µM: read-out: % inhibition at 10 µM
T3 sequence (P08913 1-465): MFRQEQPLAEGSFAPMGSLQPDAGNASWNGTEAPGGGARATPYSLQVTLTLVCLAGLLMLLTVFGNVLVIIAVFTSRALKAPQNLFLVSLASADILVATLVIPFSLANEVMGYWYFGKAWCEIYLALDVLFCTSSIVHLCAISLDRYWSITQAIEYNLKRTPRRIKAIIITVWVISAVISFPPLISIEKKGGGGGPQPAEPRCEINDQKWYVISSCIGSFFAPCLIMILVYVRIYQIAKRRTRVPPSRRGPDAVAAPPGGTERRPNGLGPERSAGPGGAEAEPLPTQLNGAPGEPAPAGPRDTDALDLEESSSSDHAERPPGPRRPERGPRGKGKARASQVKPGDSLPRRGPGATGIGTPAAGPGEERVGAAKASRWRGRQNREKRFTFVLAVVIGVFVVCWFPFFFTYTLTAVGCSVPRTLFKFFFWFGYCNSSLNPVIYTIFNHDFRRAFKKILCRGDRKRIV

[5] = biological target: D2 dopaminergic receptor (Homo sapiens, UniProt P14416); assay: PDSP radioligand binding, D2; settings: read-out: % inhibition at 10 µM
Sequence of D2 dopaminergic receptor (P14416 whole entry): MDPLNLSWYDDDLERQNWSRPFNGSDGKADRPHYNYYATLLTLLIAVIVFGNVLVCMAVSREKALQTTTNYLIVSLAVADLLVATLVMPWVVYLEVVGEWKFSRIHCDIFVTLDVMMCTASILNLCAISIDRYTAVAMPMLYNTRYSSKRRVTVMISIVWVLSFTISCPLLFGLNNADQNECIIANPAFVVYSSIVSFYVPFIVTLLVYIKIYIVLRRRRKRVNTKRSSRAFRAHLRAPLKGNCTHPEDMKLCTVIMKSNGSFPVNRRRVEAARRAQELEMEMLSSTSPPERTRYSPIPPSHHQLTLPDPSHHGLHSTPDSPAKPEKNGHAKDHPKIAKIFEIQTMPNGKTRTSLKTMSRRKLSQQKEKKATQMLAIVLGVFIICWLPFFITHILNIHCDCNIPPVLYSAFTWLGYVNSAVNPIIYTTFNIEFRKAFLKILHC

[6] = biological target: 5HT6 serotonergic receptor (Homo sapiens, UniProt P50406); assay: PDSP radioligand binding, 5HT6; settings: read-out: % inhibition at 10 µM
Sequence of 5HT6 serotonergic receptor (P50406 whole entry): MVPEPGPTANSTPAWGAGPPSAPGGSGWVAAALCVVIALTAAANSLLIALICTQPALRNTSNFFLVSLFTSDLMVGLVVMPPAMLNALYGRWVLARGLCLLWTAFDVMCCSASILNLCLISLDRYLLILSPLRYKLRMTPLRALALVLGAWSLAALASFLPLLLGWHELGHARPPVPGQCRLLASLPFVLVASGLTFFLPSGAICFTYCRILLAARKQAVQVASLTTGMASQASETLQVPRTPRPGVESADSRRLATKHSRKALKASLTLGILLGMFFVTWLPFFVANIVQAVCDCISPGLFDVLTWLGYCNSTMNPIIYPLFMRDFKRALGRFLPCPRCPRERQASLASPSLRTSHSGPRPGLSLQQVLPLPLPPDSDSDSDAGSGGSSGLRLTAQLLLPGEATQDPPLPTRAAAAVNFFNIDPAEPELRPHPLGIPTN

[7] = biological target: peripheral benzodiazepine receptor (PBR) (Rattus norvegicus, UniProt P16257); assay: PDSP radioligand binding, PBR; settings: for inhibition at 10 µM: read-out: % inhibition at 10 µM; for Ki: full curves, n = 2
[8] = biological target: σ1 receptor (Cavia porcellus, UniProt Q60492); assay: PDSP radioligand binding, σ1; settings: read-out: % inhibition at 10 µM
Sequence of σ1 receptor (Q60492 whole entry): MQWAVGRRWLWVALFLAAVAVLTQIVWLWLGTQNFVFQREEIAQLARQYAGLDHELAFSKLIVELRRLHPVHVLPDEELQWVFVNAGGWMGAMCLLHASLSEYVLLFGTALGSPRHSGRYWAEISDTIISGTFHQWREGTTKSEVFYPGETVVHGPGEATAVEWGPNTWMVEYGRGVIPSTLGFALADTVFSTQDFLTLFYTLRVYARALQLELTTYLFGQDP

[9] = biological target: T4, α2C adrenergic receptor (Homo sapiens, UniProt P18825); assay: PDSP radioligand binding, α2C; settings: for Ki: full concentration-response curves, n = 3-6 unless noted; for inhibition at 10 µM: read-out: % inhibition at 10 µM
T4 sequence (P18825 1-462): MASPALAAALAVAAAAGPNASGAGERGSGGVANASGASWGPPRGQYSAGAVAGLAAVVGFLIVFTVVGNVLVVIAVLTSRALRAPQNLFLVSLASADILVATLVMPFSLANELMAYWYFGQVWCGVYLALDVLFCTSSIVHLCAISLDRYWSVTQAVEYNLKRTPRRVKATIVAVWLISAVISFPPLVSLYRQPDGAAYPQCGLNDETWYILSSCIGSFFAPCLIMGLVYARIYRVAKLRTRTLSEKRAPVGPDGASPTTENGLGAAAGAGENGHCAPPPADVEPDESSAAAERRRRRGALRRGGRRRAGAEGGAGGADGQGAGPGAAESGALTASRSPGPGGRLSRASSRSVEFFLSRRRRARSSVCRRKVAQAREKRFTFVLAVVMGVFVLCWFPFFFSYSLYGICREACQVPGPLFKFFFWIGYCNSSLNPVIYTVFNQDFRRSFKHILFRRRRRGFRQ

[10] = biological target: δ opioid receptor (Homo sapiens, UniProt P41143); assay: PDSP radioligand binding, δ opioid; settings: for Ki: full concentration-response curves, n = 3-6 unless noted; for inhibition at 10 µM: read-out: % inhibition at 10 µM
Sequence of δ opioid receptor (P41143 whole entry): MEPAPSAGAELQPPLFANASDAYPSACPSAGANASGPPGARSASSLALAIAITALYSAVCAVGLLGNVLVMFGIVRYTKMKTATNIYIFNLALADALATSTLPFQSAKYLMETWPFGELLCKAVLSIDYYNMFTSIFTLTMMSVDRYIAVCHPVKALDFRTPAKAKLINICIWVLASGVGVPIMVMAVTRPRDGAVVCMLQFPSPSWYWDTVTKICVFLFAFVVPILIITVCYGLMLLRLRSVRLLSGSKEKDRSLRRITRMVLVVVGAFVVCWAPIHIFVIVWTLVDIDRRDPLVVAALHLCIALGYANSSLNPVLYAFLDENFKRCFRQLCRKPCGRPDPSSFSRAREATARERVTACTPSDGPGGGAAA

[11] = biological target: T5, α1B adrenergic receptor (Homo sapiens, UniProt P35368); assay: PDSP radioligand binding, α1B; settings: read-out: % inhibition at 10 µM
T5 sequence (P35368 1-520): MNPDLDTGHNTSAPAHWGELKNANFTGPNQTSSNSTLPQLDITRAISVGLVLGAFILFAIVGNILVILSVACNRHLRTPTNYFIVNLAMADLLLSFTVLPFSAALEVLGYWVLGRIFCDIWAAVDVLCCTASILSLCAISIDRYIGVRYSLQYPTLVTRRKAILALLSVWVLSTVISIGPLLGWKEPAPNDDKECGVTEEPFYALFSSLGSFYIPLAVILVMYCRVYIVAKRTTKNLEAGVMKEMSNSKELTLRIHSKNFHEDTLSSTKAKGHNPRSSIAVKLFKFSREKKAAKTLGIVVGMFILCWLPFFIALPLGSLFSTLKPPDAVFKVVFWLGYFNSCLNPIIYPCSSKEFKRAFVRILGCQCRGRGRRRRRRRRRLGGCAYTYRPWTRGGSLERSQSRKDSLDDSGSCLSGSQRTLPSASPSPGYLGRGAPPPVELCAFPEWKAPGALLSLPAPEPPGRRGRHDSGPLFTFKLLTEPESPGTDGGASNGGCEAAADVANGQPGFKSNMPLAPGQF

[12] = biological target: D5 dopaminergic receptor (Homo sapiens, UniProt P21918); assay: PDSP radioligand binding, D5; settings: read-out: % inhibition at 10 µM
Sequence of D5 dopaminergic receptor (P21918 whole entry): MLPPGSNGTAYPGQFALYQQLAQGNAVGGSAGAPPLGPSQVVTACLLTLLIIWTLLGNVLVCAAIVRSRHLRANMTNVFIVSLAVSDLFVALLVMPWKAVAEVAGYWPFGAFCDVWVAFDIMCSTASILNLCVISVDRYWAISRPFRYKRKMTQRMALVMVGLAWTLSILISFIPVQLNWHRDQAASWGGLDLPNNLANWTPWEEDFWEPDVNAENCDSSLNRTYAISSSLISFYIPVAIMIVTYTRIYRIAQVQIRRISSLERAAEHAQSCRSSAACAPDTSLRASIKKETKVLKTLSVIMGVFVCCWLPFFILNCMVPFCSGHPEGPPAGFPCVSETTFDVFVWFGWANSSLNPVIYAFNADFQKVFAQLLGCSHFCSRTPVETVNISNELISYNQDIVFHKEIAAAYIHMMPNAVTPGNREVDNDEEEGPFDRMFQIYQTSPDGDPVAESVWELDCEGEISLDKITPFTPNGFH

| Structure (SMILES) | Ki [1] | inhibition at 10 µM [1] [%] | Ki [2] [µM] | Ki [4] [µM] | Ki [9] | inhibition at 10 µM ([1]; single concentration 10 µM) [%] | inhibition at 10 µM ([2]; single concentration 10 µM) [%] | inhibition at 10 µM ([3]; single concentration 10 µM) [%] | inhibition at 10 µM ([4]; single concentration 10 µM) [%] | inhibition at 10 µM ([5]; single concentration 10 µM) [%] | inhibition at 10 µM ([6]; single concentration 10 µM) [%] | Ki [7] [µM] | inhibition at 10 µM ([7]; single concentration 10 µM) [%] | inhibition at 10 µM ([8]; single concentration 10 µM) [%] | inhibition at 10 µM ([9]; single concentration 10 µM) [%] | inhibition at 10 µM ([10]; single concentration 10 µM) [%] | inhibition at 10 µM ([11]; single concentration 10 µM) [%] | inhibition at 10 µM ([12]; single concentration 10 µM) [%] | also measured |
| --- | --- | --- | --- | --- | --- | --- | --- | --- | --- | --- | --- | --- | --- | --- | --- | --- | --- | --- | --- |
| CNC(=O)[C@@]12C[C@@H]1[C@@H](n1cnc3c(NCc4cccc(Cl)c4)nc(C#Cc4ccc(F)c(F)c4)nc31)[C@H](O)[C@@H]2O [Compound 1] | 7.19 ± 1.41 µM | 20 | 2.86 ± 1.11 | 4.77 ± 1.43 | 2.04 ± 0.95 µM | – | – | – | – | – | – | – | – | – | – | – | – | – | inhibition at 10 µM [2]: 49%; inhibition at 10 µM [3]: 0%; inhibition at 10 µM [4]: 19%; inhibition at 10 µM [5]: 0%; inhibition at 10 µM [6]: 0%; inhibition at 10 µM [7]: 71%; inhibition at 10 µM [8]: 0%; inhibition at 10 µM [9]: 63%; Ki [10]: 2.44 ± 1.54 µM; inhibition at 10 µM [10]: 44%; inhibition at 10 µM [11]: 44%; inhibition at 10 µM [12]: 13% |
| CNC(=O)[C@@]12C[C@@H]1[C@@H](n1cnc3c(NCc4cccc(Cl)c4)nc(C#Cc4ccc(F)cc4)nc31)[C@H](O)[C@@H]2O [Compound 2] | – | – | – | – | 3.64 ± 1.37 µM | 16 | 12 | 0 | 6 | 0 | 36 | 0.253 ± 0.057 | 92 | 2 | 48 | 24 | 1 | 19 | Ki [10]: 6.62 ± 1.7 µM |
| CNC(=O)[C@@]12C[C@@H]1[C@@H](n1cnc3c(NCc4cccc(Cl)c4)nc(C#Cc4ccccc4Cl)nc31)[C@H](O)[C@@H]2O [Compound 3] | – | – | 6.48 ± 2.94 | – | 1.81 ± 0.25 µM | 25 | 8 | 0 | 22 | 0 | 59 | 0.344 ± 0.149 | 87 | 33 | 57 | 31 | 7 | 10 | – |
| CNC(=O)[C@@]12C[C@@H]1[C@@H](n1cnc3c(NCc4cccc(Cl)c4)nc(Cl)nc31)[C@H](O)[C@@H]2O [Compound 4] | 0.12 µM and 0.122 µM | – | – | – | – | 95 | 21 | 23 | 26 | 16 | 9 | – | 32 | 2 | 11 | 10 | 30 | 4 | – |
| CNC(=O)[C@@]12C[C@@H]1[C@@H](n1cnc3c(NC)nc(C#Cc4ccc(F)c(F)c4)nc31)[C@H](O)[C@@H]2O [Compound 5] | – | 1 | – | – | – | – | 0 | 15 | 0 | 18 | 15 | – | 25 | 10 | 13 | 9 | 11 | 6 | – |
| O[C@@H]1[C@H](O)[C@@H]2C[C@@H]2[C@H]1n1cnc2c(NCc3cccc(Cl)c3)nc(C#Cc3ccc(F)c(F)c3)nc21 [Compound 6] | – | – | 5.97 ± 1.53 | – | 5.4 ± 1.22 µM | 0 | 0 | 13 | 14 | 9 | 0 | 1.7 | 63 | 16 | 11 | 11 | 19 | 3 | – |
| O[C@@H]1[C@H](O)[C@@H]2C[C@@H]2[C@H]1n1cnc2c(NCc3cccc(Cl)c3)ncnc21 [Compound 7] | 1.74 µM | – | 6.34 ± 1.47 | – | 5.36 ± 1.25 µM | 51 | 42 | 2 | 26 | 6 | 39 | – | 13 | 29 | 51 | 7 | 32 | 7 | – |
| Fc1ccc(C#Cc2nc(NCc3cccc(Cl)c3)c3nc[nH]c3n2)cc1F [Compound 8] | – | – | 1.09 ± 0.14 | 2.19 ± 0.27 | 1.02 ± 0.69 µM | 11 | 63 | 32 | 34 | 0 | 0 | – | 13 | 0 | 83 | 12 | 30 | 9 | – |
| Clc1cccc(CNc2nc(Cl)nc3[nH]cnc23)c1 [Compound 9] | 3.32 ± 0.32 µM | – | 0.061 ± 0.02 | 3 ± 0.51 | 0.31 µM and 0.314 µM | 56 | 95 | 6 | 58 | 0 | 31 | – | 8 | 0 | 87 | 7 | 0 | 0 | – |
| O[C@@H]1[C@H](O)[C@@H]2C[C@@H]2[C@H]1n1cnc2c(NC(C3CC3)C3CC3)nc(Cl)nc21 [Compound 10] | 1.85 ± 0.46 µM | 49 | – | – | – | – | 15 | 0 | 17 | 29 | 0 | – | 0 | 9 | 0 | 0 | 8 | 0 | – |
